Assay results: patent US9340577B2, “HLA binding motifs and peptides and their uses” (priority 1992, dated 2016)

Key:
Test in all cases: biochemical
DRB1*1501 = DRB1*1501 (Homo sapiens, UniProt P01903+P01911); format: binding
DRB1*1201 = DRB1*1201 (Homo sapiens, UniProt P01903+P01911, A100R/A169T/D57E/D86V/F55L/H45Y/K41T/L162R/M171V/P40S/Q125H/Q178H/Q39Y/Q99D/R42G/S66L/T262R/V114A/V67L/W38E/Y59H/Y61H/Y89S); format: binding
DRB1*1101 = DRB1*1101 (Homo sapiens, UniProt P01903+P01911, A100R/A169T/A87E/I96F/K41T/L162R/M171V/P40S/Q125H/Q178H/Q39Y/Q99D/R42S/S66Y/T262R/V115G/W38E)
DRB1*1302 = DRB1*1302 (Homo sapiens, UniProt P01903+P01911, A100E/A169T/K41T/L162R/M171V/P40S/Q125H/Q178H/Q39Y/Q99D/R42S/S66N/T262R/V115G/W38E/Y61H); format: binding
DRB1*0802 = DRB1*0802 (Homo sapiens, UniProt P01903+P01911, A100R/A103L/A169T/F76Y/H45Y/I96F/K41T/L162R/M171V/P40S/Q125H/Q178H/Q39Y/Q99D/R218S/R42G/S66Y/V115G/W38E); format: binding
DRB1*0901 = DRB1*0901 (Homo sapiens, UniProt P01903+P01911, A100R/A103E/D57H/D86V/F55Y/F60I/F76Y/I96F/K127E/L162R/M171V/P40D/Q125H/Q99R/R33Q/R42F/S133A/S66N/T210M/V115G/W38K/Y107V/Y59G/Y89S); format: binding
DR7 (DRB1*0701) = DR7 (DRB1*0701) (Homo sapiens, UniProt P01903+P01911, A100R/A102G/A103Q/D57E/D86V/E43K/F76Y/K127E/L162R/M171V/P40G/Q125H/Q99D/R33Q/R42Y/R54Q/S133A/S66F/T210M/V115G/Y107V/Y59L/Y89S); format: binding
DRB3*0101 = DRB3*0101 (Homo sapiens, UniProt P01903+P79483); format: binding
DR4w4 (DRB1*0401) = DR4w4 (DRB1*0401) (Homo sapiens, UniProt P01903+P01911, A100K/A169T/F76Y/I96L/K127E/L162R/M171V/N62H/P40V/Q125Y/R42H/S133A/S149N/S66Y/V115G/V209L/W38E); format: binding
DRB5*0101 = DRB5*0101 (Homo sapiens, UniProt P01903+Q30154)
DRB4*0101 = DRB4*0101 (Homo sapiens, UniProt P01903+P13762, G164S); format: binding
DR1 (DRB1*0101) = DR1 (DRB1*0101) (Homo sapiens, UniProt P01903+P01911, A100R/D57E/F55L/F60I/F76Y/I96L/L162R/M171V/P40L/Q125E/R42F/V115G/Y59C); format: binding

DRB1*1302, sequence (P01903 26-254 limits assumed, other chains not shown): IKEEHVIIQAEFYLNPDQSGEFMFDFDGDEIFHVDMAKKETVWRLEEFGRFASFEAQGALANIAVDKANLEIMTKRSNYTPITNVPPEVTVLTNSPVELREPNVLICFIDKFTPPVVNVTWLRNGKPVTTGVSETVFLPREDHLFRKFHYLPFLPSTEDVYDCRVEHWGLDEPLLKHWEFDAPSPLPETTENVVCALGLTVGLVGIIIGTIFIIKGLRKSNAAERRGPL
DRB1*1101, sequence (P01903 26-254 limits assumed, other chains not shown): as above

SMILES	IC50 (DRB1*1501) [µM]	IC50 (DRB1*1201) [µM]	IC50 (DRB1*1101; Binding affinity DRB1 *1101) [µM]	IC50 (DRB1*1302) [µM]	IC50 (DRB1*0802) [µM]	IC50 (DRB1*0901) [µM]	IC50 (DR7 (DRB1*0701)) [µM]	IC50 (DRB3*0101) [µM]	IC50 (DR4w4 (DRB1*0401)) [µM]	IC50 (DRB5*0101; Binding affinity DRB5 *0101) [µM]	IC50 (DRB4*0101) [µM]	IC50 (DR1 (DRB1*0101)) [µM]	IC50 (DRB1*1101; DRB1*1101) [µM]	IC50 (DRB5*0101; DRB5*0101) [µM]
CSCC[C@H](NC(=O)CNC(=O)[C@H](CC(C)C)NC(=O)[C@H](CCC(N)=O)NC(=O)[C@@H](NC(=O)[C@H](CC(C)C)NC(=O)[C@H](CCC(N)=O)NC(=O)CNC(=O)[C@@H](N)Cc1ccccc1)[C@@H](C)O)C(=O)N[C@@H](CCC(=O)O)C(=O)N[C@@H](CCC(N)=O)C(=O)N[C@@H](Cc1c[nH]cn1)C(=O)N[C@@H](Cc1ccc(O)cc1)C(=O)N[C@@H](CCC(=O)O)C(=O)N[C@@H](CC(C)C)C(=O)O [Peptide 68.0028]	> 20	0.653	> 20	> 20	> 20	> 20	> 20	> 20						
CC[C@H](C)[C@H](NC(=O)[C@@H]1CCCN1C(=O)[C@H](CCC(N)=O)NC(=O)[C@@H](N)Cc1c[nH]c2ccccc12)C(=O)N1CCC[C@H]1C(=O)N[C@H](C(=O)N[C@@H](Cc1c[nH]cn1)C(=O)N[C@H](C(=O)N[C@H](C(=O)N1CCC[C@H]1C(=O)N[C@@H](CC(C)C)C(=O)N[C@@H](CO)C(=O)N[C@@H](CCC(=O)O)C(=O)N[C@@H](CC(=O)O)C(=O)N[C@@H](CCC(N)=O)C(=O)O)C(C)C)[C@@H](C)O)C(C)C [Peptide 68.0039]	> 20	> 20	> 20		> 20			> 20	> 20	> 20				
CC(C)C[C@H](NC(=O)CNC(=O)[C@H](CC(N)=O)NC(=O)[C@H](Cc1ccc(O)cc1)NC(=O)[C@@H](NC(=O)[C@H](CC(=O)O)NC(=O)[C@H](CC(C)C)NC(=O)[C@H](C)N)C(C)C)C(=O)N[C@@H](CC(C)C)C(=O)N1CCC[C@H]1C(=O)N1CCC[C@H]1C(=O)N[C@@H](Cc1ccc(O)cc1)C(=O)N[C@@H](C)C(=O)N[C@@H](CO)C(=O)N[C@@H](CS)C(=O)O [Peptide 68.0052]		7.57		> 20		> 20	> 20	> 20		> 20	> 20			
CC(C)C[C@H](NC(=O)CNC(=O)[C@H](CC(N)=O)NC(=O)[C@H](Cc1ccc(O)cc1)NC(=O)[C@@H](NC(=O)[C@H](CC(=O)O)NC(=O)[C@@H](N)CC(C)C)C(C)C)C(=O)N[C@@H](CC(C)C)C(=O)N1CCC[C@H]1C(=O)N1CCC[C@H]1C(=O)N[C@@H](Cc1ccc(O)cc1)C(=O)N[C@@H](C)C(=O)N[C@@H](CO)C(=O)N[C@@H](CS)C(=O)N[C@@H](Cc1c[nH]cn1)C(=O)O [Peptide 68.0053]		9.75		> 20		> 20	> 20	> 20		> 20	> 20			
CC(C)C[C@H](NC(=O)CNC(=O)[C@H](CC(N)=O)NC(=O)[C@@H](N)Cc1ccc(O)cc1)C(=O)N[C@@H](CC(C)C)C(=O)N1CCC[C@H]1C(=O)N1CCC[C@H]1C(=O)N[C@@H](Cc1ccc(O)cc1)C(=O)N[C@@H](C)C(=O)N[C@@H](CO)C(=O)N[C@@H](CS)C(=O)N[C@@H](Cc1c[nH]cn1)C(=O)N[C@@H](CC(C)C)C(=O)N[C@H](C(=O)N[C@@H](CCC(=O)O)C(=O)O)[C@@H](C)O [Peptide 68.0054]		> 20					> 20	> 20			> 20			
CSCC[C@H](NC(=O)[C@H](CC(=O)O)NC(=O)[C@H](Cc1ccc(O)cc1)NC(=O)[C@H](CC(C)C)NC(=O)[C@@H]1CCCN1C(=O)[C@H](Cc1c[nH]cn1)NC(=O)[C@@H]1CCCN1)C(=O)N[C@@H](CO)C(=O)N[C@@H](CC(C)C)C(=O)N[C@@H](CC(C)C)C(=O)N[C@@H](CCCCN)C(=O)N[C@@H](CC(N)=O)C(=O)N[C@@H](CCCNC(=N)N)C(=O)N[C@@H](Cc1ccccc1)C(=O)N[C@@H](CC(C)C)C(=O)O [Peptide 68.0071]		0.487	> 20		> 20			> 20	> 20					
CSCC[C@H](NC(=O)[C@@H](NC(=O)[C@H](CCCCN)NC(=O)[C@@H](NC(=O)[C@H](C)NC(=O)[C@H](CC(=O)O)NC(=O)[C@@H](N)[C@@H](C)O)C(C)C)C(C)C)C(=O)N[C@@H](CC(=O)O)C(=O)N[C@@H](CC(C)C)C(=O)N1CCC[C@H]1C(=O)N[C@H](C(=O)N[C@@H](CCC(N)=O)C(=O)N[C@@H](CCC(=O)O)C(=O)N1CCC[C@H]1C(=O)N[C@@H](C)C(=O)O)[C@@H](C)O [Peptide 68.0074]	> 20	> 20	> 20	> 20	> 20	> 20	> 20	> 20	> 20	> 20		> 20		
CC[C@H](C)[C@H](N)C(=O)N[C@@H](CO)C(=O)N[C@H](C(=O)N[C@H](C(=O)N[C@@H](CC(N)=O)C(=O)N[C@@H](CCC(=O)O)C(=O)N[C@@H](CC(=O)O)C(=O)NCC(=O)N[C@@H](CC(N)=O)C(=O)N[C@@H](CCC(=O)O)C(=O)N[C@H](C(=O)N[C@@H](Cc1ccccc1)C(=O)N[C@@H](CC(N)=O)C(=O)N[C@H](C(=O)N[C@@H](CO)C(=O)O)[C@@H](C)O)[C@@H](C)CC)[C@@H](C)CC)[C@@H](C)CC [Peptide 68.0166]	3.01	10.7	> 20		> 20	> 20	> 20	0.035	> 20	> 20	6.39		> 18.9	> 37.8
